Measurements taken from the CheMixHub ionic liquid set.

Test: xn = mol fraction of the nth substance listed

O=P([O-])([O-])O.[Na+].[Na+] + CCCCCCCCCCCC[N+](C)(C)C.[Br-] + O
298.15 K, 101 kPa
Details | electrical conductivity [S/m]
x2 = 0, x1 = 0.0001802 | 0.1834
x2 = 0, x1 = 0.001799 | 1.203
x2 = 3.43e-06, x1 = 0.0001802 | 0.1849
x2 = 4.01e-06, x1 = 0.001799 | 1.201
x2 = 7.22e-06, x1 = 0.0001802 | 0.1863
x2 = 1.095e-05, x1 = 0.001799 | 1.202
x2 = 1.245e-05, x1 = 0.0001802 | 0.1888
x2 = 1.967e-05, x1 = 0.0001802 | 0.1919
x2 = 2.007e-05, x1 = 0.001799 | 1.204
x2 = 2.851e-05, x1 = 0.0001802 | 0.1958
x2 = 2.882e-05, x1 = 0.001799 | 1.205
x2 = 3.717e-05, x1 = 0.0001802 | 0.1997
x2 = 4.214e-05, x1 = 0.001799 | 1.207
x2 = 4.619e-05, x1 = 0.0001802 | 0.2038
x2 = 5.521e-05, x1 = 0.0001802 | 0.2079
x2 = 5.582e-05, x1 = 0.001799 | 1.209
x2 = 6.423e-05, x1 = 0.0001802 | 0.212
x2 = 6.895e-05, x1 = 0.001799 | 1.212
x2 = 7.307e-05, x1 = 0.0001801 | 0.2161
x2 = 8.173e-05, x1 = 0.0001801 | 0.2201
x2 = 8.209e-05, x1 = 0.001799 | 1.215
x2 = 9.056e-05, x1 = 0.0001801 | 0.224
x2 = 9.522e-05, x1 = 0.001799 | 1.218
x2 = 9.922e-05, x1 = 0.0001801 | 0.2279
x2 = 0.0001077, x1 = 0.0001801 | 0.2317
x2 = 0.0001087, x1 = 0.001799 | 1.221
x2 = 0.0001165, x1 = 0.0001801 | 0.2356
x2 = 0.0001218, x1 = 0.001799 | 1.224
x2 = 0.000125, x1 = 0.0001801 | 0.2393
x2 = 0.0001335, x1 = 0.0001801 | 0.243
x2 = 0.0001366, x1 = 0.001799 | 1.228
x2 = 0.0001441, x1 = 0.0001801 | 0.2473
x2 = 0.0001519, x1 = 0.001798 | 1.232
x2 = 0.0001524, x1 = 0.0001801 | 0.2509
x2 = 0.0001609, x1 = 0.0001801 | 0.2547
x2 = 0.0001667, x1 = 0.001798 | 1.236
x2 = 0.0001694, x1 = 0.0001801 | 0.2586
x2 = 0.0001777, x1 = 0.0001801 | 0.2624
x2 = 0.0001813, x1 = 0.001798 | 1.24
x2 = 0.0001858, x1 = 0.0001801 | 0.2662
x2 = 0.0001937, x1 = 0.0001801 | 0.2697
x2 = 0.0001963, x1 = 0.001798 | 1.243
x2 = 0.0002019, x1 = 0.0001801 | 0.2733
x2 = 0.0002103, x1 = 0.0001801 | 0.2774
x2 = 0.0002105, x1 = 0.001798 | 1.246
x2 = 0.0002184, x1 = 0.0001801 | 0.2809
x2 = 0.0002245, x1 = 0.001798 | 1.249
x2 = 0.000226, x1 = 0.0001801 | 0.2841
x2 = 0.0002339, x1 = 0.0001801 | 0.2867
x2 = 0.0002387, x1 = 0.001798 | 1.252
x2 = 0.0002421, x1 = 0.0001801 | 0.2888
x2 = 0.0002516, x1 = 0.0001801 | 0.2909
x2 = 0.0002524, x1 = 0.001798 | 1.254
x2 = 0.0002625, x1 = 0.0001801 | 0.2928
x2 = 0.0002663, x1 = 0.001798 | 1.257
x2 = 0.0002743, x1 = 0.0001801 | 0.2947
x2 = 0.0002801, x1 = 0.001798 | 1.259
x2 = 0.0002882, x1 = 0.0001801 | 0.2967
x2 = 0.0002936, x1 = 0.001798 | 1.262
x2 = 0.0003037, x1 = 0.0001801 | 0.2989
x2 = 0.0003071, x1 = 0.001798 | 1.265
x2 = 0.0003189, x1 = 0.0001801 | 0.3011
x2 = 0.0003202, x1 = 0.001798 | 1.268
x2 = 0.0003294, x1 = 0.001798 | 1.27
x2 = 0.0003301, x1 = 0.0001801 | 0.3025

COC(=O)OC + CCCCCCCC[N+](C)(CCCCCCCC)CCCCCCCC.[Cl-]
101 kPa, x1 = 1
Details | electrical conductivity [S/m] | viscosity [mPa·s]
298.15 K | 5.2e-05 | 0.58
303.15 K | 5.5e-05 | –
308.15 K | 4.9e-05 | –
313.15 K | 5.5e-05 | 0.45
318.15 K | 5.2e-05 | 0.4

Cc1ccccc1 + CCCCCCCC[n+]1ccc2ccccc2c1.O=S(=O)([N-]S(=O)(=O)C(F)(F)F)C(F)(F)F
Details | viscosity [mPa·s]
308.15 K, 101 kPa, x1 = 1 | 0.5

c1ccsc1 + CCCCCCCC[n+]1ccc2ccccc2c1.O=S(=O)([N-]S(=O)(=O)C(F)(F)F)C(F)(F)F
Details | viscosity [mPa·s]
348.15 K, 101 kPa, x1 = 1 | 0.34

CCCCCCCCn1cc[n+](C)c1.[Cl-] + CCCCCCCCn1cc[n+](C)c1.F[B-](F)(F)F
101 kPa, x1 = 1
Details | electrical conductivity [S/m] | viscosity [mPa·s]
303 K | 0.00213 | –
308 K | 0.00353 | –
313 K | 0.00562 | –
318 K | 0.00861 | –
328.15 K | – | 1367

Cc1ccccc1 + CCCCCC[N+]1(C)CCCC1.O=S(=O)([N-]S(=O)(=O)C(F)(F)F)C(F)(F)F
Details | viscosity [mPa·s]
308.15 K, 100 kPa, x1 = 1 | 0.509

CCCCCCCCCCCCCC[P+](CCCCCC)(CCCCCC)CCCCCC.O=[N+]([O-])c1cn[n-]c1 + CCCCCC[n+]1ccn(C)c1.O=S(=O)([N-]S(=O)(=O)C(F)(F)F)C(F)(F)F
100 kPa
Details | viscosity [mPa·s]
278.15 K, x2 = 0.7 | 830
293.15 K, x2 = 0.203 | 790

CCC(=O)[O-].CC[NH+]1CCNCC1 + CCCCO
Details | viscosity [mPa·s]
313.15 K, 101 kPa, x2 = 0.6004 | 14.05

CCCCCCCCCCCC[N+](C)(C)Cc1ccccc1.O=S(=O)([N-]S(=O)(=O)C(F)(F)F)C(F)(F)F + CCCCO
101 kPa
Details | viscosity [mPa·s]
298.15 K, x1 = 1 | 1425
303.15 K, x1 = 0.3015 | 34.1
308.15 K, x1 = 0.3015 | 27.3
308.15 K, x1 = 1 | 683
313.15 K, x1 = 0.7485 | 198
318.15 K, x1 = 0.1507 | 7.45
318.15 K, x1 = 0.4494 | 37.6
328.15 K, x1 = 0.9164 | 159
333.15 K, x1 = 0.1507 | 4.83
333.15 K, x1 = 0.4494 | 20.6
333.15 K, x1 = 0.594 | 40.9
338.15 K, x1 = 0.7485 | 63
338.15 K, x1 = 1 | 118
343.15 K, x1 = 0.7485 | 52.4
348.15 K, x1 = 0.594 | 25.2

FC1CC(F)(F)C(F)(F)C1(F)F (stereo unspecified) + CCCC[N+]1(C)CCCC1.FC(F)(F)C(F)(F)[P-](F)(F)(F)(C(F)(F)C(F)(F)F)C(F)(F)C(F)(F)F
101 kPa
Details | electrical conductivity [S/m] | viscosity [mPa·s]
298.1 K, x2 = 0 | – | 1.65
298.1 K, x2 = 0.252 | – | 8.05
298.1 K, x2 = 0.438 | – | 21.3
298.1 K, x2 = 0.653 | 0.275 | –
298.1 K, x2 = 0.842 | 0.167 | –
303 K, x2 = 0.177 | 0.746 | –
303 K, x2 = 0.434 | 0.424 | –
303 K, x2 = 0.839 | 0.21 | –
303 K, x2 = 0.844 | – | 87.6
308.1 K, x2 = 0.077 | 0.594 | –
313 K, x2 = 0.183 | 0.88 | –
318.1 K, x2 = 0.077 | 0.699 | –
318.1 K, x2 = 0.437 | – | 11.2
318.1 K, x2 = 0.836 | 0.359 | –
323 K, x2 = 0.655 | – | 21.17

Cc1ccccc1 + CCCC[N+]1(C)CCCC1.O=S(=O)([N-]S(=O)(=O)C(F)(F)F)C(F)(F)F
Details | viscosity [mPa·s]
308.15 K, 100 kPa, x1 = 1 | 0.509

OC[C@H]1O[C@@](CO)(O[C@H]2O[C@H](CO)[C@@H](O)[C@H](O)[C@H]2O)[C@@H](O)[C@@H]1O + CCCC[N+](C)(CCCC)CCCC.[Cl-] + O
viscosity [mPa·s], 101.3 kPa
Details | x1 = 0.0003585, x2 = 0 | x1 = 0.0007185, x2 = 0 | x1 = 0.001078, x2 = 0 | x1 = 0.00144, x2 = 0 | x1 = 0.001799, x2 = 0 | x1 = 0.002163, x2 = 0 | x1 = 0.002507, x2 = 0
293.15 K | 1.016 | 1.038 | 1.059 | 1.081 | 1.094 | 1.112 | 1.133
298.15 K | 0.906 | 0.921 | 0.935 | 0.957 | 0.972 | 0.987 | 1.006
303.15 K | 0.807 | 0.817 | 0.83 | 0.847 | 0.861 | 0.878 | 0.891
308.15 K | 0.725 | 0.733 | 0.745 | 0.759 | 0.772 | 0.786 | 0.8
313.15 K | 0.657 | 0.664 | 0.674 | 0.683 | 0.697 | 0.71 | 0.721

CCCCCCCCCC(=O)O + CCCC[N+](CCCC)(CCCC)CCCC.[Cl-]
100 kPa
Details | electrical conductivity, x2 = 0.25 [S/m] | viscosity, x2 = 0.25 [mPa·s] | viscosity, x2 = 0.333 [mPa·s]
293.15 K | 0.00575 | 201 | –
303.15 K | 0.00886 | 135 | –
313.15 K | 0.0133 | 93.3 | 155
323.15 K | 0.0194 | 65.9 | –
333.15 K | 0.0277 | 47.5 | –
343.15 K | – | – | 39.5

CC(=O)O.CC(=O)[O-].CC[NH+](CC)CCO + CCCC[n+]1ccn(C)c1.COP(=O)([O-])OC
101 kPa
Details | viscosity [mPa·s]
278.15 K, x1 = 0.3316 | 453
278.15 K, x1 = 0.5275 | 335
283.15 K, x1 = 0.7493 | 220
288.15 K, x1 = 0.5275 | 168.3
293.15 K, x1 = 0.0748 | 568
293.15 K, x1 = 0.7493 | 116.3
298.15 K, x1 = 0.5275 | 93.7
298.15 K, x1 = 0.6343 | 91.1
298.15 K, x1 = 0.8567 | 76.9
303.15 K, x1 = 0.0748 | 283.6
303.15 K, x1 = 1 | 59.6
308.15 K, x1 = 0.3316 | 74.6
308.15 K, x1 = 0.7493 | 53.4
313.15 K, x1 = 0.5275 | 44.19
313.15 K, x1 = 0.6343 | 42.6
318.15 K, x1 = 0.8567 | 27.56
323.15 K, x1 = 0.5275 | 30.28
323.15 K, x1 = 0.6343 | 29.17
323.15 K, x1 = 0.8567 | 22.27
328.15 K, x1 = 0.0748 | 73.3
328.15 K, x1 = 0.4263 | 27.4
328.15 K, x1 = 0.7493 | 23.34
333.15 K, x1 = 0.6343 | 18.02
333.15 K, x1 = 0.7493 | 17.41
338.15 K, x1 = 0.0748 | 47.83
343.15 K, x1 = 0.7493 | 13.68
348.15 K, x1 = 0.6343 | 12.02
348.15 K, x1 = 1 | 8.93
358.15 K, x1 = 0.5275 | 9.3
358.15 K, x1 = 0.8567 | 6.94
358.15 K, x1 = 1 | 6.65
363.15 K, x1 = 1 | 5.8
368.15 K, x1 = 0.5275 | 7.03
368.15 K, x1 = 0.6343 | 6.64
